Values quoted from earlier work, collected in patent US20180140572A1, “COMPOSITIONS COMPRISING A CANCER STEMNESS INHIBITOR AND AN IMMUNOTHERAPEUTIC AGENT FOR USE IN TREATING CANCER” (Boston Biomedical, Inc., priority 2015, published 2018).

Test system: microsatellite stable (MSS) metastatic colorectal cancer (mCRC)
Details: patients with MSS mCRC, cited from earlier work

Question: For “pembrolizumab: immunotherapeutic agent that binds to PD-1”, which “immune-related progression-free survival at 20 weeks” value (20 weeks) is on record?
Answer: 11%

Question: What about the disease control rate of the same substance?
Answer: 11%

Question: What about the effectiveness of the same substance?
Answer: not effective

Question: And the “immune-related objective response rate” value?
Answer: 0%

Question: And the response rate?
Answer: 0%
